# Patent US20260001914A1, “MACROCYCLIC PEPTIDES TARGETING KRAS” (Merck Sharp & Dohme LLC, priority 2022, published 2026)
# *1 amine or outer side, *2 acyl side, *3 side chain or, on linkers, in order; H or OH if unused. Where a SMILES comes first, the peptide text is derived from it. Bridges are numbered along the chain shown (N, C = ends). [ ]: non-standard residue; d: D form. X34 = O=C(C[C@@H](Cc1ccccc1)C(=O)[*:2])C12CC(CN[*:1])(C1)C2; NMeNva(5-imidazol-1-yl) = CN[C@@H](CCCn1ccnc1)C(=O)O; Phe(4-guanidino) = N=C(N)Nc1ccc(C[C@H](N)C(=O)O)cc1; X19 = C[C@H](c1ccccc1)[C@@H](C(=O)[*:2])N(C)[*:1]; Ala(pyrimidin-5-yl) = N[C@@H](Cc1cncnc1)C(=O)O; X71 = COc1c(F)cc(C[C@H](N[*:1])C(=O)[*:2])cc1F; NMe3Pal(5-F) = CN[C@@H](Cc1cncc(F)c1)C(=O)O; NMePhe(3-Me) = CN[C@@H](Cc1cccc(C)c1)C(=O)O; X27 = Cc1ccc(C[C@H](N[*:1])C(=O)[*:2])cn1; X5 = O=C([C@H](Cc1c(F)ccnc1F)N[*:1])[*:2]; Leu(4,5-dehydro) = C=C(C)C[C@H](N)C(=O)O; X24 = O=C([C@H](Cc1ccncc1Cl)N[*:1])[*:2]; X11 = CC(C)(F)CC[C@H](N[*:1])C(=O)[*:2]; Nle(5,5-F2) = CC(F)(F)CC[C@H](N)C(=O)O; X2 = O=C([C@H](Cc1ccccc1F)O[*:1])[*:2]; 1Nal = N[C@@H](Cc1cccc2ccccc12)C(=O)O; Phe(2-F) = N[C@@H](Cc1ccccc1F)C(=O)O; NMe3Pal = CN[C@@H](Cc1cccnc1)C(=O)O; X1 = O=C(C12CC(CN[*:1])(C1)C2)[*:2]; Ala(cPr) = N[C@@H](CC1CC1)C(=O)O; NMeF = CN[C@@H](Cc1ccccc1)C(=O)O; PhLac = O=C(O)[C@@H](O)Cc1ccccc1; X79 = O=C(C1CCC(N[*:1])CC1)[*:2]; 3Pal = N[C@@H](Cc1cccnc1)C(=O)O; 4Pal = N[C@@H](Cc1ccncc1)C(=O)O; Gly(N(CH2)3NH2) = NCCCNCC(=O)O; Ahp(2) = CCCCC[C@H](N)C(=O)O; Cba = N[C@@H](CC1CCC1)C(=O)O; hLeu = CC(C)CC[C@H](N)C(=O)O; NMeS = CN[C@@H](CO)C(=O)O; αMeC = C[C@](N)(CS)C(=O)O; NMeA = CN[C@@H](C)C(=O)O; Nle = CCCC[C@H](N)C(=O)O
# Molecular target: KRAS-G12D protein (Homo sapiens, UniProt P01116, G12D)
# Assay: SOS-mediated nucleotide exchange assay (BODIPY-GDP / Tb-streptavidin TR-FRET)
# Format: biochemical
# Chain of KRAS-G12D protein (P01116 1-188 isoform P01116-2 G12D): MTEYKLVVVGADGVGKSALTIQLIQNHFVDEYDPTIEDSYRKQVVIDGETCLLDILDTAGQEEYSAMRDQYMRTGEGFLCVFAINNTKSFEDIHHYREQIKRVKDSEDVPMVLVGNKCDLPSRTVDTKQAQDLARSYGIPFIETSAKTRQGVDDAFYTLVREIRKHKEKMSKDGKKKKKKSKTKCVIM
row,Compound,EC50 [nM]
1,"CCCCC[C@@H]1NC(=O)[C@H](Cc2ccc(OC)cc2)NC(=O)[C@H](CC2CCC2)NC(=O)[C@H](Cc2cccnc2)NC(=O)[C@H](CCCNC(=N)N)NC(=O)[C@H](Cc2ccccc2F)NC(=O)CSC[C@@](C)(C(N)=O)NC(=O)[C@H](Cc2ccccc2)N(C)C1=O [compound 370, cyclo(Phe2F-R-3Pal-cBuA-TyrOMe-Ahp-NMeF-aMeCl-ClAc)]",14.9
2,"CCCC[C@@H]1NC(=O)[C@H](Cc2ccc(O)cc2)NC(=O)[C@H](CC(C)C)NC(=O)[C@H](Cc2ccc(O)cc2)NC(=O)[C@H](CCCNC(=N)N)NC(=O)[C@H](Cc2ccccc2)NC(=O)CSC[C@@H](C(N)=O)NC(=O)[C@H](Cc2ccccc2)N(C)C1=O [compound 1, cyclo(F-R-Y-L-Y-Nle-NMeF-Cl-ClAc)]",912
3,"Cc1cccc(C[C@H]2C(=O)NCC34CC(C3)(C4)C(=O)O[C@@H](Cc3ccccc3)C(=O)N(C)[C@@H](C)C(=O)N[C@@H](Cc3cncnc3)C(=O)N[C@@H](CC3CC3)C(=O)N[C@@H](Cc3ccccc3F)C(=O)N[C@@H](CCC(C)(F)F)C(=O)N2C)c1 [compound 275, cyclo(FLac-NMeA-PyrimAla-cPrA-Phe2F-Nle3F2-NMePhe3Me-amBCP)] (cyclo([Ala(cPr)][Phe(2-F)][Nle(5,5-F2)][NMePhe(3-Me)][X1][PhLac][NMeA][Ala(pyrimidin-5-yl)]))",1
4,"C[C@H]1C(=O)N[C@@H](Cc2cccnc2)C(=O)N[C@@H](CC2CCC2)C(=O)N[C@@H](Cc2ccccc2F)C(=O)N[C@@H](CCC(C)(F)F)C(=O)N(C)[C@@H](Cc2cncc(F)c2)C(=O)NCC23CC(C2)(C3)C(=O)O[C@@H](Cc2ccccc2)C(=O)N1C [compound 285, cyclo(FLac-NMeA-3Pal-cBuA-Phe2F-Nle3F2-NMe3Pal5F-amBCP)] (cyclo([3Pal][Cba][Phe(2-F)][Nle(5,5-F2)][NMe3Pal(5-F)][X1][PhLac][NMeA]))",13
5,"CC(C)CC[C@@H]1NC(=O)[C@H](Cc2c(F)ccnc2F)NC(=O)[C@H](CC2CC2)NC(=O)[C@H](Cc2cncnc2)NC(=O)[C@H](C)N(C)C(=O)[C@H](Cc2ccccc2)OC(=O)C23CC(CNC(=O)[C@H](Cc4ccccc4)N(C)C1=O)(C2)C3 [compound 295, cyclo(FLac-NMeA-PyrimAla-cPrA-3Pal26F2-hL-NMeF-amBCP)] (cyclo([Ala(cPr)][X5][hLeu][NMeF][X1][PhLac][NMeA][Ala(pyrimidin-5-yl)]))",63
6,"C[C@H]1C(=O)N[C@@H](Cc2cncnc2)C(=O)N[C@@H](CC2CC2)C(=O)N[C@@H](Cc2ccccc2F)C(=O)N[C@@H](CCC(C)(F)F)C(=O)N(C)[C@@H](Cc2ccccc2)C(=O)NCC23CC(C2)(C3)C(=O)C[C@@H](Cc2ccccc2)C(=O)N1C [compound 290, cyclo(CPhe-NMeA~PyrimAla-cPrA-Phe2F-Nle3F2-NMeF-amBCP)] (cyclo([Ala(cPr)][Phe(2-F)][Nle(5,5-F2)][NMeF][X34][NMeA][Ala(pyrimidin-5-yl)]))",2
7,"C[C@H]1C(=O)N[C@@H](Cc2cncnc2)C(=O)N[C@@H](CCC(C)(F)F)C(=O)N[C@@H](Cc2ccccc2F)C(=O)N[C@@H](CCC(C)(F)F)C(=O)N(C)[C@@H](Cc2ccccc2)C(=O)NCC23CC(C2)(C3)C(=O)O[C@@H](Cc2ccccc2)C(=O)N1C [compound 288, cyclo(FLac-NMeA-PyrimAla-Nle3F2-Phe2F-Nle3F2-NMeF-amBCP)] (cyclo([NMeA][Ala(pyrimidin-5-yl)][Nle(5,5-F2)][Phe(2-F)][Nle(5,5-F2)][NMeF][X1][PhLac]))",247
8,"CCCCC[C@@H]1NC(=O)[C@H](Cc2ccc(O)cc2)NC(=O)[C@H](CCCC)NC(=O)[C@H](Cc2ccc(O)cc2)NC(=O)[C@H](CCCNC(=N)N)NC(=O)[C@H](Cc2ccccc2)NC(=O)CSC[C@@H](C(N)=O)NC(=O)[C@H](Cc2ccccc2)N(C)C1=O [compound 12, cyclo(F-R-Y-Nle-Y-Ahp-NMeF-Cl-ClAc)] ({CH2CO}-FRY[Nle]Y[Ahp(2)][NMeF]C-NH2; thioether N-8)",1190
9,"C=C(C)C[C@@H]1NC(=O)[C@H](CC2CC2)NC(=O)[C@H](Cc2cncnc2)NC(=O)[C@H](C)N(C)C(=O)[C@H](Cc2ccccc2)OC(=O)C23CC(CNC(=O)[C@H](Cc4ccccc4)N(C)C(=O)[C@H](CCC(C)C)NC1=O)(C2)C3 [compound 287, cyclo(FLac-NMeA-PyrimAla-cPrA-deHLeu-hL-NMeF-amBCP)] (cyclo([Ala(cPr)][Leu(4,5-dehydro)][hLeu][NMeF][X1][PhLac][NMeA][Ala(pyrimidin-5-yl)]))",720
10,"CC(C)CC[C@@H]1NC(=O)[C@H](Cc2ccccc2F)NC(=O)[C@H](CC2CC2)NC(=O)[C@H](Cc2cncnc2)NC(=O)[C@H](C)N(C)C(=O)[C@H](Cc2ccccc2)OC(=O)C23CC(CNC(=O)[C@H](Cc4cncc(F)c4)N(C)C1=O)(C2)C3 [compound 282, cyclo(FLac-NMeA-PyrimAla-cPrA-Phe2F-hL-NMe3Pal5F-amBCP)] (cyclo([Ala(cPr)][Phe(2-F)][hLeu][NMe3Pal(5-F)][X1][PhLac][NMeA][Ala(pyrimidin-5-yl)]))",2
11,"C[C@H](c1ccccc1)[C@H]1C(=O)NCC23CC(C2)(C3)C(=O)O[C@@H](Cc2ccccc2)C(=O)N(C)[C@@H](C)C(=O)N[C@@H](Cc2cncnc2)C(=O)N[C@@H](CC2CC2)C(=O)N[C@@H](Cc2ccccc2F)C(=O)N[C@@H](CCC(C)(C)F)C(=O)N1C [compound 341, cyclo(FLac-NMeA-PyrimAla-cPrA-Phe2F-hL3F-NMeRbMeF-amBCP)] (cyclo([Ala(cPr)][Phe(2-F)][X11][X19][X1][PhLac][NMeA][Ala(pyrimidin-5-yl)]))",1370
12,"CCCC[C@@H]1NC(=O)[C@H](Cc2cncnc2)NC(=O)[C@H](CCCn2ccnc2)N(C)C(=O)[C@H](Cc2ccccc2)OC(=O)C23CC(CNC(=O)[C@H](Cc4cccnc4)N(C)C(=O)[C@H](CCCC)NC(=O)[C@H](Cc4ccccc4F)OC1=O)(C2)C3 [compound 246, cyclo(FLac-NMeNvalmid-PyrimAla-Nle-F2FLac-Nle-NMe3Pal-amBCP)] (cyclo([NMe3Pal][X1][PhLac][NMeNva(5-imidazol-1-yl)][Ala(pyrimidin-5-yl)][Nle][X2][Nle]))",1160
13,"CCCC[C@@H]1NC(=O)[C@H](Cc2cccnc2)NC(=O)[C@H](CCCNC(=N)N)NC(=O)[C@H](Cc2ccccc2)NC(=O)C2CCC(CC2)NC(=O)[C@H](Cc2ccccc2)N(C)C(=O)[C@H](CCCC)NC(=O)[C@H](Cc2ccc(OC)cc2)NC1=O [compound 201, cyclo(F-R-3Pal-Nle-TyrOMe-Nle-NMeF-cHxclacid4NH2)] (cyclo([3Pal][Nle]Y(Me)[Nle][NMeF][X79]FR))",256
14,"CC(C)CC[C@@H]1NC(=O)[C@H](Cc2ccccc2F)NC(=O)[C@H](CC2CCC2)NC(=O)[C@H](Cc2cncnc2)NC(=O)[C@H](C)N(C)C(=O)[C@H](Cc2ccccc2)OC(=O)C23CC(CNC(=O)[C@H](Cc4ccccc4)N(C)C1=O)(C2)C3 [compound 134, cyclo(FLac-NMeA-PyrimAla-cBuA-Phe2F-hL-NMeF-amBCP)] (cyclo([Cba][Phe(2-F)][hLeu][NMeF][X1][PhLac][NMeA][Ala(pyrimidin-5-yl)]))",6.47
15,"C[C@H]1C(=O)N[C@@H](Cc2cncnc2)C(=O)N[C@@H](CC2CC2)C(=O)N[C@@H](Cc2ccncc2Cl)C(=O)N[C@@H](CCC(C)(C)F)C(=O)N(C)[C@@H](Cc2ccccc2)C(=O)NCC23CC(C2)(C3)C(=O)O[C@@H](Cc2ccccc2)C(=O)N1C [compound 299, cyclo(FLac-NMeA-PyrimAla-cPrA-4Pal2Cl-hL3F-NMeF-amBCP)] (cyclo([Ala(cPr)][X24][X11][NMeF][X1][PhLac][NMeA][Ala(pyrimidin-5-yl)]))",6.3
16,"C[C@H]1C(=O)N[C@@H](Cc2cncnc2)C(=O)N[C@@H](CC2CC2)C(=O)N[C@@H](Cc2ccccc2F)C(=O)N[C@@H](CCC(C)(F)F)C(=O)N(C)[C@@H](Cc2ccccc2)C(=O)NCC23CC(C2)(C3)C(=O)O[C@@H](Cc2ccccc2)C(=O)N1C [compound 276, cyclo(FLac-NMeA-PyrimAla-cPrA-Phe2F-Nle3F2-NMeF-amBCP)] (cyclo([Ala(cPr)][Phe(2-F)][Nle(5,5-F2)][NMeF][X1][PhLac][NMeA][Ala(pyrimidin-5-yl)]))",1
17,"CCCC[C@@H]1NC(=O)[C@H](Cc2ccncc2)NC(=O)[C@H](CCCNC(=N)N)NC(=O)[C@H](Cc2cccc3ccccc23)NC(=O)CSC[C@H](C(=O)O)NC(=O)[C@H](Cc2ccccc2)N(C)C(=O)[C@H](CCCC)NC(=O)[C@H](Cc2ccc(O)cc2)NC1=O [compound 198, cyclo(INal-R-4Pal-Nle-Y-Nle-NMeF-dC-ClAc)] ({CH2CO}-[1Nal]R[4Pal][Nle]Y[Nle][NMeF][dC]-OH; thioether N-8)",299
18,"CCCCC[C@@H]1NC(=O)[C@H](Cc2ccc(OC)cc2)NC(=O)[C@H](CC2CCC2)NC(=O)[C@H](Cc2ccc(NC(=N)N)cc2)NC(=O)CN(CCCN)C(=O)[C@H](Cc2ccccc2)NC(=O)CSC[C@@](C)(C(N)=O)NC(=O)[C@H](Cc2ccccc2)N(C)C1=O [compound 388, cyclo(F-NPrNH2G-Phe4Gn-cBuA-TyrOMe-Ahp-NMeF-aMeCl-ClAc)] ({CH2CO}-F[Gly(N(CH2)3NH2)][Phe(4-guanidino)][Cba]Y(Me)[Ahp(2)][NMeF][αMeC]-NH2; thioether N-8)",121
19,"CCCC[C@@H]1NC(=O)[C@H](Cc2cccnc2)NC(=O)[C@H](C)N(C)C(=O)[C@H](Cc2ccc(C)nc2)NC(=O)C23CC(CNC(=O)[C@H](Cc4cccnc4)N(C)C(=O)[C@H](CCCC)NC(=O)[C@H](Cc4ccccc4F)NC1=O)(C2)C3 [compound 164, cyclo(4Me3Pal-NMeA-3Pal-Nle-Phe2F-Nle-NMe3Pal-amBCP)] (cyclo([3Pal][Nle][Phe(2-F)][Nle][NMe3Pal][X1][X27][NMeA]))",2890
20,"CCCC[C@@H]1NC(=O)[C@H](Cc2cccnc2)NC(=O)[C@H](CO)N(C)C(=O)[C@H](Cc2ccccc2)OC(=O)C23CC(CNC(=O)[C@H](Cc4cccnc4)N(C)C(=O)[C@H](CCCC)NC(=O)[C@H](Cc4ccccc4F)NC1=O)(C2)C3 [compound 118, cyclo(FLac-NMeS-3Pal-Nle-Phe2F-Nle-NMe3Pal-amBCP)] (cyclo([3Pal][Nle][Phe(2-F)][Nle][NMe3Pal][X1][PhLac][NMeS]))",466
21,"CCCC[C@@H]1NC(=O)[C@H](Cc2cc(F)c(OC)c(F)c2)NC(=O)[C@H](C)N(C)C(=O)[C@H](Cc2ccccc2)OC(=O)C23CC(CNC(=O)[C@H](Cc4ccccc4)N(C)C(=O)[C@H](CCCC)NC(=O)[C@H](Cc4ccccc4F)NC1=O)(C2)C3 [compound 310, cyclo(FLac-NMeA-TyrOMe35F2-Nle-Phe2F-Nle-NMeF-amBCP)] (cyclo([NMeA][X71][Nle][Phe(2-F)][Nle][NMeF][X1][PhLac]))",140
